This assay has as its target T1, cloned human H3 receptors (Homo sapiens, UniProt Q9Y5N1).
T1 construct: expressed in transfected cells; host or cells: SK-N-MC cells
As to the kind of experiment: H3 Receptor Binding (Human). To be noted: cloned human H3 receptors stably expressed in SK-N-MC cells; average of the results obtained. The method, then:
Binding of compounds to the cloned human H3 receptors, stably expressed in SK-N-MC cells, was performed as described by Barbier, A. J. et al. (Br. J. Pharmacol. 2004, 143(5), 649-661). Data for compounds tested in this assay are presented in Table 1 as an average of the results obtained.
T1 sequence (Q9Y5N1 whole entry): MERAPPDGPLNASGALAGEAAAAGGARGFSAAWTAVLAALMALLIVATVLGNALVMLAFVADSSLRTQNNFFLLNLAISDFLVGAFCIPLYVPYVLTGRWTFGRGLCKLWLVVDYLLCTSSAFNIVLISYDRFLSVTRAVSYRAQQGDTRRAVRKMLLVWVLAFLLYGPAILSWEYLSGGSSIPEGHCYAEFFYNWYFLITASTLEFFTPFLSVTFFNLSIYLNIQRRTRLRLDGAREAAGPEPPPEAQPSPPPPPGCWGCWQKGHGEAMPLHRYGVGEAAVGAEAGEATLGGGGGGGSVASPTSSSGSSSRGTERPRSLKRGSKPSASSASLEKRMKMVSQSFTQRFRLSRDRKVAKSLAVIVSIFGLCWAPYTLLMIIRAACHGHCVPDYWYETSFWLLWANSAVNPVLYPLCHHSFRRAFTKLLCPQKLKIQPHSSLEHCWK
For `N#Cc1cccc(C(=O)N2CCc3cc(C(=O)N4CCC[C@H]4CN4CCCC4)ccc3C2)c1` [Example 52, (S)-3-[6-(2-Pyrrolidin-1-ylmethyl-pyrrolidine-1-carbonyl)-3,4-dihydro-1H-isoquinoline-2-carbonyl]-benzonitrile], the affinity, expressed as Ki, was 15 nM.
The value for `N#Cc1ccc(C(=O)N2CCc3cc(C(=O)N4CCC[C@H]4CN4CCCC4)ccc3C2)cc1` [Example 53, (S)-4-[6-(2-Pyrrolidin-1-ylmethyl-pyrrolidine-1-carbonyl)-3,4-dihydro-1H-isoquinoline-2-carbonyl]-benzonitrile] was 9 nM.
The value for `Cc1ccccc1C(=O)N1CCc2cc(C(=O)N3CCC[C@H]3CN3CCCC3)ccc2C1` [Example 54, (S)-[6-(2-Pyrrolidin-1-ylmethyl-pyrrolidine-1-carbonyl)-3,4-dihydro-1H-isoquinolin-2-yl]-o-tolyl-methanone] was 9 nM; that for `Cc1ccc(C(=O)N2CCc3cc(C(=O)N4CCC[C@H]4CN4CCCC4)ccc3C2)cc1` [Example 55, (S)-[6-(2-Pyrrolidin-1-ylmethyl-pyrrolidine-1-carbonyl)-3,4-dihydro-1H-isoquinolin-2-yl]-p-tolyl-methanone] was 22 nM; that for `O=C(c1ccccc1F)N1CCc2cc(C(=O)N3CCC[C@H]3CN3CCCC3)ccc2C1` [Example 56, (S)-(2-Fluoro-phenyl)-[6-(2-Pyrrolidin-1-ylmethyl-pyrrolidine-1-carbonyl)-3,4-dihydro-1H-isoquinolin-2-yl]-methanone] was 23 nM.
Turning to `O=C(c1cccc(F)c1)N1CCc2cc(C(=O)N3CCC[C@H]3CN3CCCC3)ccc2C1` [Example 57, (S)-(3-Fluoro-phenyl)-[6-(2-pyrrolidin-1-ylmethyl-pyrrolidine-1-carbonyl)-3,4-dihydro-1H-isoquinolin-2-yl]-methanone], the affinity corresponds to a Ki of 14 nM. This Ki is about 1.6-fold lower than that of the molecule before.
`O=C(c1ccc(F)cc1)N1CCc2cc(C(=O)N3CCC[C@H]3CN3CCCC3)ccc2C1` [Example 58, (S)-(4-Fluoro-phenyl)-[6-(2-pyrrolidin-1-ylmethyl-pyrrolidine-1-carbonyl)-3,4-dihydro-1H-isoquinolin-2-yl]-methanone]: the Ki (usually the dissociation constant of the complex between target and ligand, obtained from inhibition or displacement) is 17 nM.
`COc1cccc(C(=O)N2CCc3cc(C(=O)N4CCC[C@H]4CN4CCCC4)ccc3C2)c1` [Example 59, (S)-(3-Methoxy-phenyl)-[6-(2-Pyrrolidin-1-ylmethyl-pyrrolidine-1-carbonyl)-3,4-dihydro-1H-isoquinolin-2-yl]-methanone] gave a Ki of 12 nM.
In the case of `COc1ccc(C(=O)N2CCc3cc(C(=O)N4CCC[C@H]4CN4CCCC4)ccc3C2)cc1` [Example 60, (S)-(4-Methoxy-phenyl)-[6-(2-pyrrolidin-1-ylmethyl-pyrrolidine-1-carbonyl)-3,4-dihydro-1H-isoquinolin-2-yl]-methanone] it was 21 nM.
With `COc1ccc(CC(=O)N2CCc3cc(C(=O)N4CCC[C@H]4CN4CCCC4)ccc3C2)cc1` [Example 61], the Ki was 7 nM.
The value for `O=C(c1ccc2c(c1)CCN(C(=O)c1cccc(F)c1)C2)N1CCN(C2CCC2)CC1` [Example 62, (4-Cyclobutyl-piperazin-1-yl)-[2-(3-fluoro-benzoyl)-1,2,3,4-tetrahydro-isoquinolin-6-yl]-methanone] was 24 nM; that for `CCC(=O)N1CCc2cc(C(=O)N3CCN(C4CCCC4)CC3)ccc2C1` [Example 63, 1-[6-(4-Cyclopentyl-piperazine-1-carbonyl)-3,4-dihydro-1H-isoquinolin-2-yl]-propan-1-one] was 61 nM.
As for `CC(C)(C)C(=O)N1CCc2cc(C(=O)N3CCN(C4CCCC4)CC3)ccc2C1` [Example 64, 1-[6-(4-Cyclopentyl-piperazine-1-carbonyl)-3,4-dihydro-1H-isoquinolin-2-yl]-2,2-dimethyl-propan-1-one], affinity was put at a Ki of 100 nM.
Turning to `O=C(c1ccc2c(c1)CCN(C(=O)c1ccccc1)C2)N1CCN(C2CCCC2)CC1` [Example 65, (2-Benzoyl-1,2,3,4-tetrahydro-isoquinolin-6-yl)-(4-cyclopentyl-piperazin-1-yl)-methanone], the Ki was 100 nM.
In the case of `O=C(c1ccc2c(c1)CCN(C(=O)c1ccccc1F)C2)N1CCN(C2CCCC2)CC1` [Example 66, (4-Cyclopentyl-piperazin-1-yl)-[2-(2-fluoro-benzoyl)-1,2,3,4-tetrahydro-isoquinolin-6-yl]-methanone] it was 43 nM; in that of `O=C(c1ccc2c(c1)CCN(C(=O)c1ccc(F)cc1)C2)N1CCN(C2CCCC2)CC1` [Example 67, (4-Cyclopentyl-piperazin-1-yl)-[2-(4-fluoro-benzoyl)-1,2,3,4-tetrahydro-isoquinolin-6-yl]-methanone], 53 nM; in that of `O=C(c1ccc2c(c1)CCN(C(=O)c1ccccc1Cl)C2)N1CCN(C2CCCC2)CC1` [Example 68, [2-(2-Chloro-benzoyl)-1,2,3,4-tetrahydro-isoquinolin-6-yl]-(4-cyclopentyl-piperazin-1-yl)-methanone], 32 nM.
In the case of `O=C(c1ccc2c(c1)CCN(C(=O)c1ccc(Cl)cc1)C2)N1CCN(C2CCCC2)CC1` [Example 69, [2-(4-Chloro-benzoyl)-1,2,3,4-tetrahydro-isoquinolin-6-yl]-(4-cyclopentyl-piperazin-1-yl)-methanone] it was 91 nM; in that of `Cc1ccc(C(=O)N2CCc3cc(C(=O)N4CCN(C5CCCC5)CC4)ccc3C2)cc1` [Example 70, (4-Cyclopentyl-piperazin-1-yl)-[2-(4-methyl-benzoyl)-1,2,3,4-tetrahydro-isoquinolin-6-yl]-methanone], 65 nM; in that of `O=C(Cc1ccc(F)cc1)N1CCc2cc(C(=O)N3CCN(C4CCCC4)CC3)ccc2C1` [Example 71, 1-[6-(4-Cyclopentyl-piperazine-1-carbonyl)-3,4-dihydro-1H-isoquinolin-2-yl]-2-(4-fluoro-phenyl)-ethanone], 48 nM.
Consider `O=C(c1ccc2c(c1)CCN(C(=O)c1ccccc1F)C2)N1CCN(C2CCCCC2)CC1` [Example 72, (4-Cyclohexyl-piperazin-1-yl)-[2-(2-fluoro-benzoyl)-1,2,3,4-tetrahydro-isoquinolin-6-yl]-methanone], for which the Ki was 80 nM.
The value for `O=C(c1ccc2c(c1)CCN(C(=O)c1cccc(F)c1)C2)N1CCN(C2CCCCC2)CC1` [Example 73, (4-Cyclohexyl-piperazin-1-yl)-[2-(3-fluoro-benzoyl)-1,2,3,4-tetrahydro-isoquinolin-6-yl]-methanone] was 109 nM; that for `O=C(c1ccc2c(c1)CCN(C(=O)c1ccc(F)cc1)C2)N1CCN(C2CCCCC2)CC1` [Example 74, (4-Cyclohexyl-piperazin-1-yl)-[2-(4-fluoro-benzoyl)-1,2,3,4-tetrahydro-isoquinolin-6-yl]-methanone] was 109 nM; that for `O=C(c1ccc2c(c1)CCN(C(=O)c1ccccc1Cl)C2)N1CCN(C2CCCCC2)CC1` [Example 75, [2-(2-Chloro-benzoyl)-1,2,3,4-tetrahydro-isoquinolin-6-yl]-(4-cyclohexyl-piperazin-1-yl)-methanone] was 77 nM.
For the molecule `O=C(c1ccc2c(c1)CCN(C(=O)c1cccc(Cl)c1)C2)N1CCN(C2CCCCC2)CC1` [Example 76, [2-(3-Chloro-benzoyl)-1,2,3,4-tetrahydro-isoquinolin-6-yl]-(4-cyclohexyl-piperazin-1-yl)-methanone], the Ki was found to be 100 nM.
The value for `O=C(c1ccc2c(c1)CCN(C(=O)c1ccc(Cl)cc1)C2)N1CCN(C2CCCCC2)CC1` [Example 77, [2-(4-Chloro-benzoyl)-1,2,3,4-tetrahydro-isoquinolin-6-yl]-(4-cyclohexyl-piperazin-1-yl)-methanone] was 180 nM.
The molecule `COc1ccccc1C(=O)N1CCc2cc(C(=O)N3CCN(C4CCCCC4)CC3)ccc2C1` [Example 78, (4-Cyclohexyl-piperazin-1-yl)-[2-(2-methoxy-benzoyl)-1,2,3,4-tetrahydro-isoquinolin-6-yl]-methanone] registered a Ki of 70 nM.
The molecule `COc1cccc(C(=O)N2CCc3cc(C(=O)N4CCN(C5CCCCC5)CC4)ccc3C2)c1` [Example 79, (4-Cyclohexyl-piperazin-1-yl)-[2-(3-methoxy-benzoyl)-1,2,3,4-tetrahydro-isoquinolin-6-yl]-methanone] gave an inhibition constant Ki of 169 nM. Against the preceding molecule, the Ki is about 2.4-fold higher.
In the case of `N#Cc1cccc(C(=O)N2CCc3cc(C(=O)N4CCN(C5CCCCC5)CC4)ccc3C2)c1` [Example 80] it was 70 nM; in that of `N#Cc1ccc(C(=O)N2CCc3cc(C(=O)N4CCN(C5CCCCC5)CC4)ccc3C2)cc1` [Example 81, 4-[6-(4-Cyclohexyl-piperazine-1-carbonyl)-3,4-dihydro-1H-isoquinoline-2-carbonyl]-benzonitrile], 65 nM.
In the case of `Cc1ccccc1C(=O)N1CCc2cc(C(=O)N3CCN(C4CCCCC4)CC3)ccc2C1` [Example 82, (4-Cyclohexyl-piperazin-1-yl)-[2-(2-methyl-benzoyl)-1,2,3,4-tetrahydro-isoquinolin-6-yl]-methanone] it was 55 nM.
In the case of `Cc1ccc(C(=O)N2CCc3cc(C(=O)N4CCN(C5CCCCC5)CC4)ccc3C2)cc1` [Example 83, (4-Cyclohexyl-piperazin-1-yl)-[2-(4-methyl-benzoyl)-1,2,3,4-tetrahydro-isoquinolin-6-yl]-methanone] it was 257 nM.
As for `CC(C)(C)c1ccc(C(=O)N2CCc3cc(C(=O)N4CCN(C5CCCCC5)CC4)ccc3C2)cc1` [Example 84, [2-(4-tert-Butyl-benzoyl)-1,2,3,4-tetrahydro-isoquinolin-6-yl]-(4-cyclohexyl-piperazin-1-yl)-methanone], the Ki stood at 180 nM.
In the case of `O=C(c1ccc2c(c1)CCN(C(=O)c1ccccc1)C2)N1CCN(C2CCCCC2)CC1` [Example 85, (2-Benzoyl-1,2,3,4-tetrahydro-isoquinolin-6-yl)-(4-cyclohexyl-piperazin-1-yl)-methanone] it was 118 nM.

The record behind these values is patent publication US20090099158A1, “TETRAHYDROISOQUINOLINE COMPOUNDS AS MODULATORS OF THE HISTAMINE H3 RECEPTOR” (priority 2007, published 2009).
